Measurements as given in patent US8680065B2, “Oligonucleotides of human endogenous retrovirus 9 (ERV-9) long terminal repeat (LTR) and methods of use” (The United States of America, as represented by the …, priority 2008, dated 2014).

Columns and labels:
[1] = tested on: MDA-231 tumor xenografts; experiment: Growth of human tumor xenografts in SCID mice; assay type: in vivo; details: MDA-231 xenograft; for tumor growth, combination treatment with VP16: 50 μg oligonucleotide and 50 ng VP16 once per day; for tumor burden compared to treatment with G3139: 50 μg oligonucleotide per mouse; for tumor growth (tumor size): 50 μg oligonucleotide per mouse injected around tumor once per day
Protocol: (§1) FIG. 18A is a pair of graphs showing the effect of sense and antisense ERV-9 U3 oligonucleotides (SEQ ID NOs: 1 and 2, respectively) on growth of MDA-231 (top) and HT1080 (bottom) tumor xenografts in SCID mice. Mice were injected with 50 μg of the indicated oligonucleotides once per day for 14 days (MDA-231) or 7 days (HT1080).
(§2) FIG. 18B is a pair of graphs showing the effect of sense and antisense ERV-9 U3 oligonucleotides (SEQ ID NOs: 1 and 2, respectively) on growth of MDA-231 (top) and HT1080 (bottom) tumor xenografts in SCID mice in combination with VP16. Mice were injected with 50 μg of the indicated oligonucleotides and 50 ng of VP16 once per day for 24 days (MDA-231) or 14 days (HT1080).
(§3) CB-17 prkdc(SCID) male, 4- to 6-week-old SCID mice were purchased from the Jackson Laboratory. Cultured cells (MDA-231 or HT1080 cells) were washed with and resuspended in serum-free media. The suspension (2×10^6 cells in 0.2 ml per mouse) was then injected into the chest area of the mice. The mice were monitored by measuring tumor growth and body weight and by general clinical observation. When tumor size reached approximately 4×4 mm, tumor-bearing mice were randomly divided into multiple treatment and control groups (five mice per group). All oligonucleotides, dissolved in PBS, were injected into the surrounding area of the tumor at doses of 50 μg per mouse (approximately 2.5 mg/kg), one time per day, 5 days/week until the tumor size of the control injected tumors reached about 20×20 mm (2×2 cm). The tumors were dissected from mice and weighed with the investigator blinded as to the treatment group. In combination therapy, 50 μg of the oligonucleotide (approximately 2.5 mg/kg) and 50 ng of VP16 (approximately 2.5 μg/kg), both dissolved in PBS, were injected together (one time per day, 5 days/week) into the surrounding area of the tumor to all groups.

[2] = tested on: HT1080 tumor xenografts; experiment: Growth of human tumor xenografts in SCID mice; assay type: in vivo; details: HT1080 xenograft; for tumor growth, combination treatment with VP16: 50 μg oligonucleotide and 50 ng VP16 once per day; for tumor burden compared to treatment with G3139: 50 μg oligonucleotide per mouse; for tumor growth (tumor size): 50 μg oligonucleotide per mouse injected around tumor once per day
Protocol: as §1, §2, §3

[3] = tested on: HT1080 cells; experiment: Cancer cell proliferation, oligonucleotide in combination with VP16, 48 hours; assay type: cell-based, human; details: oligonucleotide 15 μg/ml with VP16 30 ng/ml and 50 ng/ml, P<0.05
Protocol: FIG. 7 is a graph showing proliferation of HT1080 cells treated with ERV-9 U3 sense or antisense oligonucleotide (SEQ ID NOs: 1 and 2, respectively), in combination with VP16 (also known as etoposide). Cells (4×10^4) were treated with oligonucleotide (15 μg/ml) alone or in combination with the concentrations of VP16 shown for 48 hours. Cell proliferation levels were expressed relative to the percentage of GFP oligonucleotide control in the absence of VP16.
To test the effect of treating cancer cells with the combination of ERV-9 U3 oligonucleotide and VP16, six different cancer cell lines were analyzed: HT1080, (FIG. 7); MDA-231 (FIG. 8); K562 (FIG. 9); LNcaP (FIG. 10); HepG2 (FIG. 11); and MCF-7 (FIG. 12). Cells (4×10^4) were treated with 15 μg/ml ERV-9 U3 sense (SEQ ID NO: 1) or antisense (SEQ ID NO: 2) oligonucleotide alone or in combination with VP16 at a concentration of 30 ng/ml or 50 ng/ml. After 48 hours, cell proliferation was assessed by direct cell counting. Cell proliferation levels were expressed relative to GFP oligonucleotide control in the absence of VP16.

[4] = tested on: human primary lymphocytes; experiment: Proliferation of normal human primary cells, 48 hours; assay type: cell-based; details: 20 μg/ml, P>0.05
Protocol: (§4) FIG. 14 is a graph showing the effect of ERV-9 U3 sense and antisense oligonucleotides (SEQ ID NOs: 1 and 2, respectively) on human primary lymphocytes. Cells (4×10^4) were transfected with ERV-9 U3 sense or antisense oligonucleotide formulated in LIPOFECTAMINE™ at a concentration of 20 μg/ml for 48 hours.
(§5) To determine whether the inhibitory effect of ERV-9 U3 oligonucleotides is specific to cancer cells, human primary keratinocytes (FIG. 13), lymphocytes (FIG. 14), or monocytes (FIG. 15) were treated with ERV-9 U3 sense or antisense oligonucleotide and cell proliferation was evaluated. Cells (4×10^4) were transfected with ERV-9 U3 sense or antisense oligonucleotide (SEQ ID NOs: 1 and 2, respectively) formulated in LIPOFECTAMINE™ at a concentration of 20 μg/ml. GFP oligonucleotide was used as non-specific phosphorothioate oligonucleotide control. After 48 hours, cell proliferation was assessed by direct cell counting. Cell proliferation levels were expressed relative to GFP control.

[5] = tested on: human primary cells (keratinocytes, lymphocytes, monocytes); experiment: Proliferation of normal human primary cells, Example 3, summary; assay type: cell-based; details: 20 μg/ml, 48 hours
Protocol: as §5

[6] = tested on: human primary keratinocytes; experiment: Proliferation of normal human primary cells, 48 hours; assay type: cell-based; details: 20 μg/ml, P>0.05
Protocol: as §4, with “13” for “14”, “keratinocytes.” for “lymphocytes.”, “hours. GFP oligonucleotide was used as non-specific phosphorothioate oligonucleotide control.” for “hours.”
as §5

| Substance | tumor growth, combination treatment with VP16 [1] | tumor burden compared to treatment with G3139 [1] | tumor growth (tumor size) [1] | tumor growth, combination treatment with VP16 [2] | tumor burden compared to treatment with G3139 [2] | tumor growth (tumor size) [2] | cell proliferation relative to GFP oligonucleotide control [3] | cell proliferation relative to control GFP oligonucleotide [4] | cell proliferation of human primary cells relative to control GFP oligonucleotide [5] | cell proliferation of human primary cells relative to control GFP oligonucleotide ([5]; listed as ERV-9 U3 sense oligonucleotide) | cell proliferation relative to control GFP oligonucleotide [6] | cell proliferation of human primary cells relative to control GFP oligonucleotide ([5]; listed as ERV-9 U3 antisense oligonucleotide) |
| --- | --- | --- | --- | --- | --- | --- | --- | --- | --- | --- | --- | --- |
| U3S: ERV-9 LTR U3 sense oligonucleotide CTCAAGGTTTGTAAACACACCAATCAG, phosphorothioate internucleoside linkages at each position (all phosphorothioate, sugars by position and methylation of C not given here) [Oligo U3S] | inhibited tumor growth when co-administered with VP16 better than GFP oligonucleotide or G3139 antisense oligonucleotide | had reduced tumor burden for both MDA-231 and HT1080 tumors, although this did not reach statistical significance | inhibited tumor growth better than GFP oligonucleotide or G3139 antisense oligonucleotides | inhibited tumor growth when co-administered with VP16 better than GFP oligonucleotide or G3139 antisense oligonucleotide | had reduced tumor burden for both MDA-231 and HT1080 tumors, although this did not reach statistical significance | inhibited tumor growth better than GFP oligonucleotide or G3139 antisense oligonucleotides | inhibited cell proliferation better than GFP control and G3139, GRN163 and MDM2 antisense oligonucleotides | did not inhibit cell proliferation relative to control GFP oligonucleotide | neither U3 sense nor antisense oligonucleotides had an effect on the proliferation of human primary cells | did not significantly alter cell proliferation of human primary cells, relative to control GFP oligonucleotide | did not inhibit cell proliferation relative to control GFP oligonucleotide | – |
| U3AS: ERV-9 LTR U3 antisense oligonucleotide CTGATTGGTGTGTTTACAAACCTTGAG, phosphorothioate internucleoside linkages at each position (all phosphorothioate, sugars by position and methylation of C not given here) [Oligo U3AS] | inhibited tumor growth when co-administered with VP16 better than GFP oligonucleotide or G3139 antisense oligonucleotide | had reduced tumor burden for both MDA-231 and HT1080 tumors, although this did not reach statistical significance | inhibited tumor growth better than GFP oligonucleotide or G3139 antisense oligonucleotides | inhibited tumor growth when co-administered with VP16 better than GFP oligonucleotide or G3139 antisense oligonucleotide | had reduced tumor burden for both MDA-231 and HT1080 tumors, although this did not reach statistical significance | inhibited tumor growth better than GFP oligonucleotide or G3139 antisense oligonucleotides | inhibited cell proliferation better than GFP control and G3139, GRN163 and MDM2 antisense oligonucleotides | did not inhibit cell proliferation relative to control GFP oligonucleotide | neither U3 sense nor antisense oligonucleotides had an effect on the proliferation of human primary cells | – | did not inhibit cell proliferation relative to control GFP oligonucleotide | did not significantly alter cell proliferation of human primary cells, relative to control GFP oligonucleotide |
